One data set deals with T1, p38 MAP kinase (Homo sapiens, UniProt Q16539).
T1 construct: made in house; host or cells: E. coli (co-expressed with SEK-1 and MEKK)
Description: p38 (MAP) kinase in vitro assay (transfer of γ-33P from ATP to Myelin Basic Protein). To be noted: phosphorylated recombinant p38 MAP kinase, MBP substrate, γ-33P-ATP, 30° C. Format: biochemical. The protocol:
This example illustrates a p38 (MAP) kinase in vitro assay useful for evaluating the compounds of the invention.
The p38 MAP kinase inhibitory activity of compounds of this invention in vitro was determined by measuring the transfer of the γ-phosphate from γ-^33P-ATP by p-38 kinase to Myelin Basic Protein (MBP), using a minor modification of the method described in Ahn, et al., J. Biol. Chem. 266:4220-4227 (1991).
The phosphorylated form of the recombinant p38 MAP kinase was co-expressed with SEK-1 and MEKK in E. Coli (see, Khokhlatchev, et al., J. Biol. Chem. 272:11057-11062 (1997)) and then purified by affinity chromatography using a Nickel column.
The phosphorylated p38 MAP kinase was diluted in kinase buffer (20 mM 3-(N-morpholino)propanesulfonic acid, pH 7.2, 25 mM β-glycerol phosphate, 5 mM ethylene glycol-bis(beta-aminoethyl ether)-N,N,N′,N′-tetraacetic acid, 1 mM sodium ortho-vanadate, 1 mM dithiothreitol, 40 mM magnesium chloride). Test compound dissolved in DMSO or only DMSO (control) was added and the samples were incubated for 10 min at 30° C. The kinase reaction was initiated by the addition of a substrate cocktail containing MBP and γ-^33P-ATP. […] The phosphorylated MBP was then separated from the residual γ-^33P-ATP using a phosphocellulose membrane (Millipore, Bedford, Mass.) and quantitated using a scintillation counter (Packard, Meriden, Conn.).

T1 sequence (Q16539 whole entry): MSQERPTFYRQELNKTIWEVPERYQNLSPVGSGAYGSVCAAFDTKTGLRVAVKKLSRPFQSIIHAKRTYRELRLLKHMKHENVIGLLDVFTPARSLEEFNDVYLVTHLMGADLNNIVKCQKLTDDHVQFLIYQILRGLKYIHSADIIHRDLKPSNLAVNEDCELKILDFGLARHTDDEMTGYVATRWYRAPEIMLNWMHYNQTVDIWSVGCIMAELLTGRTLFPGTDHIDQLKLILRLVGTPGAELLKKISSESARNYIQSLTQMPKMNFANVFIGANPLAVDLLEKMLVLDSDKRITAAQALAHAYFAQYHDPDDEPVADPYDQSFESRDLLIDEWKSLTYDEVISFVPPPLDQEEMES

Usually melting point stands for the temperature of the solid-liquid transition. Regarding `O=S(=O)(Nc1ccc2c(-c3ccccc3Cl)n[nH]c2c1)c1cccc(Cl)c1` [Compound 12, 3-Chloro-N-[3-(2-chloro-phenyl)-1H-indazol-6-yl]-benzenesulfonamide], the melting point fell in the range of 187 to 189 °C.

One may read the IC50 as the concentration that gives 50% inhibition. As to `O=S(=O)(Nc1ccc2c(-c3ccccc3Cl)n[nH]c2c1)c1cccc(Cl)c1F` [Compound 46, 3-Chloro-N-[3-(2-chloro-phenyl)-1H-indazol-6-yl]-2-fluoro-benzenesulfonamide], the IC50 at p38 MAP kinase was about 20 nM.

The record behind these values is patent US7517901B2, “p38 MAP kinase inhibitors and methods for using the same” (Roche Palo Alto LLC, priority 2005, dated 2009).
